Data as given in PubChem BioAssay (NCI).
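1) Cells in 96-well plates. 2) Compound, 48 h, 5 concentrations. 3) Linear interpolation between surrounding doses. 4) Unreached endpoint = highest concentration. TGI: concentration producing complete growth inhibition.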

How the values were obtained:
Assay in all cases: inhibition of tumour cell growth, NCI panel, 48 h
HT29 colon = system: HT29 colon
RPMI-8226 leukemia = system: RPMI-8226 leukemia
MDA-MB-435 = system: MDA-MB-435
T-47D breast = system: T-47D breast
SF-295 CNS = system: SF-295 CNS
SK-MEL-5 melanoma = system: SK-MEL-5 melanoma
MALME-3M melanoma = system: MALME-3M melanoma
M14 melanoma = system: M14 melanoma
HOP-92 NSCLC = system: HOP-92 NSCLC
KM12 colon = system: KM12 colon
MDA-N = system: MDA-N

| SMILES | TGI (HT29 colon) | TGI (RPMI-8226 leukemia) | TGI (MDA-MB-435) | TGI (T-47D breast) | TGI (SF-295 CNS) | TGI (SK-MEL-5 melanoma) | TGI (MALME-3M melanoma) | TGI (M14 melanoma) | TGI (HOP-92 NSCLC) | TGI (KM12 colon) | TGI (MDA-N) |
| --- | --- | --- | --- | --- | --- | --- | --- | --- | --- | --- | --- |
| CN(C)CCNc1ccc2c(=O)n(CCN(C)C)c(=O)n3c4ccc(O)cc4c(=O)c1c23 | 0.229 µM | 0.417 µM | 0.259 µM | 0.717 µM | 0.148 µM | 0.211 µM | 0.45 µM | 1.86 µM | 0.0941 µM | 2.15 µM | 0.26 µM |
| CC1=NNC(=O)C1C1C(=O)NN=C(c2c[nH]c3ccccc23)C1Br (stereo not given) | > 100 µM | > 100 µM | > 100 µM | > 100 µM | 54.7 µM | > 100 µM | > 100 µM | > 100 µM | > 100 µM | 34.4 µM | > 100 µM |
| CC(=O)O[C@H]1CC(C)(C)C(=C=C/C(C)=C/C=C/C=C/C=C(C)/C=C2C=C(/C=C/[C@@]34O[C@]3(C)C[C@@H](O)CC4(C)C)C(=O)O/2)[C@](C)(O)C1 | > 100 µM | 27.9 µM | > 100 µM | > 100 µM | 34.3 µM | 28.9 µM | 41.9 µM | 25.6 µM | > 100 µM | 46.5 µM | 49.5 µM |
| COC(=O)C1=C(O)C(C(=O)OC)C2CC(=O)CC1C2(C)C (stereo not given) | > 100 µM | > 100 µM | > 100 µM | > 100 µM | > 100 µM | > 100 µM | > 100 µM | > 100 µM | > 100 µM | > 100 µM | > 100 µM |
| N#CCCN(CCC#N)c1ccc(/C=C2\N=C(c3ccccc3)N(c3ccc(F)cc3)C2=O)cc1 | > 100 µM | > 100 µM | > 100 µM | > 100 µM | > 100 µM | > 100 µM | > 100 µM | > 100 µM | > 100 µM | > 100 µM | > 100 µM |
| CCOC(=O)c1c(C)n(Cc2ccc(Cl)cc2Cl)c2c1cc(O)c1[nH]c3c(c12)CCCC3 | 68.2 µM | 50.7 µM | 55.5 µM | > 100 µM | 97.2 µM | 44.5 µM | 43.2 µM | 86.3 µM | 43 µM | 67.2 µM | 45.6 µM |
| Cn1nc2ccc([N+](=O)[O-])c(Cn3nnc4ccccc43)c2n1 | > 100 µM | > 100 µM | > 100 µM | > 100 µM | > 100 µM | > 100 µM | > 100 µM | > 100 µM | > 100 µM | > 100 µM | > 100 µM |
| N#Cc1c(-c2ccc(Cl)cc2)c2c(nn3c4ccc5ccccc5c4nnc23)[nH]c1=O | > 33.5 µM | > 28.9 µM | 8.69 µM | 2.66 µM | 5.47 µM | 6.27 µM | 3.83 µM | 6.14 µM | 6.72 µM | 13.3 µM | 5.78 µM |
| O=C(Nc1ccc(N2C(=O)CSC2c2ccccc2O)cc1)c1ccc(N2C(=O)CSC2c2ccccc2O)cc1 (stereo not given) | > 100 µM | > 100 µM | > 100 µM | > 100 µM | > 100 µM | > 100 µM | > 100 µM | 61.3 µM | 86.4 µM | > 100 µM | > 100 µM |
| Cc1ccc2nc(SCC(=O)N=Nc3c(O)[nH]c4ccccc34)n(-c3ccccc3)c(=O)c2c1 | 33.5 µM | 35.7 µM | 33.7 µM | 34 µM | 29.5 µM | 29.1 µM | 34.7 µM | 29.8 µM | 29.6 µM | 27.9 µM | 37.6 µM |
| CC(C)/C(Cl)=N/OC(=O)Nc1ccc(Br)cc1 | 18.5 µM | 5.24 µM | 30.7 µM | 9.95 µM | 28.8 µM | 26.3 µM | 3.85 µM | 8.33 µM | 3.35 µM | 26.6 µM | 15.7 µM |
| O=C(O)CN(CC(=O)O)C1CCCCC1N1CC(=O)OC(=O)C1 (stereo not given) | > 100 µM | > 100 µM | > 100 µM | > 100 µM | > 100 µM | > 100 µM | > 100 µM | > 100 µM | > 100 µM | > 100 µM | > 100 µM |
| O=c1[nH]c(Nc2ccccc2)nc2c1ncn2CC(O)CSCCO (stereo not given) | > 100 µM | > 100 µM | > 100 µM | > 100 µM | > 100 µM | > 100 µM | > 100 µM | > 100 µM | > 100 µM | > 100 µM | > 100 µM |
| COc1cc(/C=C2\C(=O)N(c3cccc([N+](=O)[O-])c3)C(c3ccccc3)S2(=O)=O)cc(OC)c1OC (stereo not given) | > 100 µM | > 100 µM | > 100 µM | > 100 µM | > 100 µM | > 100 µM | > 100 µM | > 100 µM | > 100 µM | > 100 µM | > 100 µM |
| OC1[C@@H]2[C@@H](O)CCCN2C[C@@H](O)[C@H]1O (stereo not given in full) | > 100 µM | > 100 µM | > 100 µM | > 100 µM | > 100 µM | > 100 µM | > 100 µM | > 100 µM | > 100 µM | > 100 µM | > 100 µM |
| CSc1ncc2c(n1)C(C#N)C1Sc3ccccc3N1C2=O (stereo not given) | > 100 µM | > 100 µM | > 100 µM | > 100 µM | > 100 µM | > 100 µM | > 100 µM | > 100 µM | > 100 µM | > 100 µM | > 100 µM |
| Oc1cc(Cc2ccccc2)c(Cc2ccccc2)cc1O | > 10 µM | > 10 µM | > 10 µM | > 10 µM | > 10 µM | > 10 µM | > 10 µM | > 10 µM | > 10 µM | > 10 µM | 3.04 µM |
| COC(=O)Cc1cc(O)c2c(c1O)C(=O)c1ccccc1C2=O | > 46.4 µM | > 100 µM | > 100 µM | > 100 µM | > 72.4 µM | > 100 µM | > 100 µM | > 100 µM | 56 µM | > 100 µM | > 100 µM |
| CCc1n[nH]c(=O)n1CCCCCCCCCCCCn1c(CC)n[nH]c1=O | > 100 µM | > 100 µM | 76.3 µM | 82.9 µM | > 100 µM | 32.8 µM | 76 µM | 95.8 µM | > 100 µM | > 100 µM | > 100 µM |
| CC(N=NNc1ccc(-c2nc3ccccc3[nH]2)cc1)C(=O)O (stereo not given) | > 100 µM | > 100 µM | > 100 µM | > 100 µM | 72.1 µM | > 100 µM | > 100 µM | > 100 µM | > 100 µM | > 100 µM | > 100 µM |
| Cc1ccc(Nc2nc3[nH]ccc3c(=O)[nH]2)cc1 | > 100 µM | > 100 µM | > 100 µM | > 100 µM | > 100 µM | > 100 µM | > 100 µM | > 100 µM | > 100 µM | > 100 µM | > 100 µM |
| CC1CC[C@@]2(OC1)OC1C[C@H]3[C@@H]4CC=C5CC(OC6OC(CO)C(OC7OC(CO)C(O)C(OC8OCC(O)C(O)C8O)C7OC7OC(CO)C(OC8OC(C)C(OC9OC(C)C(O)C(O)C9O)C(O)C8O)C(O)C7O)C(O)C6O)CCC5(C)[C@H]4CCC3(C)C1[C@@H]2C (stereo not given in full) | 15.4 µM | 25 µM | 18.4 µM | 20.2 µM | 13.8 µM | 15.8 µM | 20.1 µM | 10.1 µM | 14.8 µM | 17.7 µM | 16.2 µM |
| [N-]=[N+]=Nc1c(Cc2ccccc2)c(Cl)nc2ccccc12 | > 100 µM | 87.3 µM | 37.2 µM | > 100 µM | 62.1 µM | 30 µM | 41.8 µM | 49.4 µM | 64.4 µM | 61.2 µM | > 100 µM |
| C#CCNC(CSSCC(N)C(=O)O)C(=O)O (stereo not given) | > 100 µM | > 100 µM | > 100 µM | > 100 µM | > 100 µM | > 100 µM | > 100 µM | > 100 µM | > 100 µM | > 100 µM | > 100 µM |
| N#CN1C2CCC1CC(=O)C2 | > 100 µM | > 100 µM | > 100 µM | > 100 µM | > 100 µM | > 100 µM | > 100 µM | > 100 µM | > 100 µM | > 100 µM | > 100 µM |
| O=C(O)CC(Cc1ccccc1Cl)C(=O)O (stereo not given) | > 100 µM | > 100 µM | > 100 µM | > 100 µM | > 100 µM | > 100 µM | > 100 µM | > 100 µM | > 100 µM | > 100 µM | > 100 µM |
| Fc1ccc(C(OCCN2CCN(CCCc3ccccc3)CC2)c2ccc(F)cc2)cc1 | 12.3 µM | 8.63 µM | 14 µM | 19.3 µM | 15.2 µM | 10.1 µM | 17 µM | 11.3 µM | 11.6 µM | 17.1 µM | 14.3 µM |
| CCC/C(Cl)=N\OC(=O)Nc1ccc(F)cc1 | > 69.6 µM | 15.6 µM | 31.9 µM | 21.9 µM | > 100 µM | 26.7 µM | 20.5 µM | 29.6 µM | 16.5 µM | 42.6 µM | 30.2 µM |
| C=CCOC(=O)N1c2ccc(O[Si](C)(C)C(C)(C)C)cc2[C@@]23O[C@@]24[C@@H]1C#C/C=C\C#C[C@]3(O)C(OC)(OC)C[C@@H]4C | > 100 µM | > 100 µM | > 100 µM | > 100 µM | > 100 µM | > 100 µM | > 100 µM | > 100 µM | > 100 µM | > 100 µM | > 100 µM |
| COc1ccc([C@H]2[C@H]3COC(=O)[C@H]3C(C#N)=C3Sc4ccccc4N32)cc1 | 37.7 µM | 72 µM | > 100 µM | > 82.5 µM | > 90.8 µM | > 57.3 µM | > 100 µM | > 100 µM | > 100 µM | > 91.2 µM | > 74.4 µM |
